From EPA's ToxRefDB 2

Assays:
mouse [1] = conditions: Subchronic oral toxicity in rodents, other, Feed, dose end: 90 day, group: systemic, systemic / clinical chemistry / cholesterol / cholesterol + systemic / clinical chemistry / triglycerides / triglycerides + systemic / organ…
rat [2] = conditions: Carcinogenicity, wistar, Oral, Feed, dose end: 24 month, group: systemic
dog [3] = conditions: Chronic toxicity, beagle, Oral, Feed, dose end: 52 week, group: systemic
rat [4] = conditions: Chronic toxicity; wistar; Oral; Feed; dose end: 104 week; group: systemic; systemic / pathology microscopic / eye / degeneration + systemic / pathology microscopic / prostate / fibrosis + systemic / pathology …
rat [5] = conditions: Multigenerational reproductive toxicity study, wistar, Oral, Feed, dose end: 2 generation
rat [6] = conditions: Multigenerational reproductive toxicity study, sprague dawley, Oral, Feed, dose end: 2 generation
mouse [7] = conditions: Subchronic oral toxicity in rodents, Gavage/Intubation, dose end: 91 day, group: systemic
rat [8] = conditions: Sub-acute repeat dose toxicity, Oral, Gavage/Intubation, dose end: 12 day
rat [9] = conditions: Peri- and post-natal toxicity study (Segment III), Oral, Gavage/Intubation, dose end: 1 generation
dog [10] = conditions: Subchronic oral toxicity in nonrodent, beagle, Gavage/Intubation, dose end: 91 day, group: systemic, systemic / pathology microscopic / brain / necrosis
primate = conditions: Sub-acute repeat dose toxicity, Oral, Gavage/Intubation, dose end: 14 day, group: systemic
dog [11] = conditions: Sub-acute repeat dose toxicity, beagle, Oral, Gavage/Intubation, dose end: 14 day, group: systemic
mouse [12] = conditions: Sub-acute repeat dose toxicity, Oral, Gavage/Intubation, dose end: 14 day, group: systemic
rat [13] = conditions: Sub-acute repeat dose toxicity; wistar; Oral; Gavage/Intubation; dose end: 14 day; group: systemic; systemic / hematology / [other] / [other]
rat [14] = conditions: Chronic toxicity, Oral, Gavage/Intubation, dose end: 182 day, group: systemic
[15] = systemic / pathology microscopic / liver / eosinophilic focus + systemic / pathology microscopic / lung / foam cell aggregation
[16] = systemic / pathology microscopic / liver / eosinophilic focus + systemic / pathology microscopic / lung / foam cell aggregation + systemic…
[17] = systemic / hematology / reticulocyte / reticulocyte + systemic / organ weight / adrenal gland / absolute + systemic / organ weight / adrenal…
[18] = group: offspring, systemic / organ weight / liver / absolute
[19] = group: parental, systemic / organ weight / epididymis / absolute + systemic / organ weight / adrenal gland / absolute
[20] = group: offspring, developmental / developmental landmark / nipple development / nipple development + developmental / developmental landmark / preputial …
[21] = group: parental, systemic / organ weight / epididymis / absolute + systemic / organ weight / epididymis / relative to body weight + systemic / organ weight…
[22] = group: reproductive, reproductive / reproductive performance / fertility / fertility
[23] = systemic / clinical chemistry / [other] / [other] + systemic / hematology / leukocyte (wbc) count differential / leukocyte (wbc) + systemic…
[24] = group: maternal, reproductive / offspring survival early / litter size / litter size + reproductive / reproductive performance / postimplantation loss / …
[25] = group: systemic, systemic / in life observation / body weight / body weight gain + systemic / in life observation / clinical signs / emaciation + systemic / …
[26] = group: maternal, reproductive / offspring survival early / dead fetuses / dead fetuses + reproductive / reproductive performance / dystocia / dystocia + …
[27] = group: maternal, reproductive / offspring survival early / litter size / litter size
[28] = group: parental, systemic / in life observation / clinical signs / body cold to touch + systemic / in life observation / clinical signs / cannibalism + …
[29] = group: parental, systemic / in life observation / clinical signs / body cold to touch + systemic / in life observation / clinical signs / dehydration + …
[30] = systemic / hematology / erythrocyte (rbc) count differential / erythrocyte (rbc) + systemic / hematology / hematocrit (hct) / hematocrit (…
[31] = systemic / in life observation / body weight / body weight + systemic / in life observation / clinical signs / [other] + systemic / in life …
[32] = systemic / clinical chemistry / [other] / [other] + systemic / clinical chemistry / creatinine / creatinine + systemic / clinical chemistry…
[33] = systemic / in life observation / clinical signs / abnormal feces + systemic / in life observation / food consumption / food consumption + …
[34] = systemic / clinical chemistry / [other] / [other] + systemic / clinical chemistry / cytochrome p450, nos / cytochrome p450, nos + systemic…
[35] = systemic / clinical chemistry / albumin / albumin + systemic / clinical chemistry / calcium / calcium + systemic / clinical chemistry / …
[36] = systemic / organ weight / kidney / absolute + systemic / pathology microscopic / intestine small / erosion

**Q.** With C=CC1(C)OC(=O)N(c2cc(Cl)cc(Cl)c2)C1=O (stereo not given) [Vinclozolin] as the compound, how does the LEL (mouse [1]) read?
**A.** 230 mg/kg/day

**Q.** What about the LOAEL (mouse [1]) of the same compound?
**A.** 230 mg/kg/day

**Q.** And the NEL (mouse [1])?
**A.** 20 mg/kg/day

**Q.** And the NOAEL (mouse [1])?
**A.** 20 mg/kg/day

**Q.** What about the LOAEL (rat [2]; [15]) of the same compound?
**A.** 2.3 mg/kg/day

**Q.** What about the NOAEL (rat [2]; [15]) of the same compound?
**A.** < 2.3 mg/kg/day

**Q.** And the LEL (rat [2]; [16])?
**A.** 2.3 mg/kg/day

**Q.** And the NEL (rat [2]; [16])?
**A.** < 2.3 mg/kg/day

**Q.** What about the LOAEL (dog [3]; [17]) of the same compound?
**A.** 47 mg/kg/day

**Q.** And the NEL (dog [3]; [17])?
**A.** 2.4 mg/kg/day

**Q.** What about the NOAEL (dog [3]; [17]) of the same compound?
**A.** 4.8 mg/kg/day

**Q.** What about the LEL (dog [3]; systemic / organ weight / adrenal gland / absolute + systemic / organ weight / adrenal gland / relative to body weight + systemic / clinical…) of the same compound?
**A.** 4.8 mg/kg/day

**Q.** And the LEL (rat [4])?
**A.** 7 mg/kg/day

**Q.** And the LOAEL (rat [4])?
**A.** 7 mg/kg/day

**Q.** What about the NEL (rat [4]) of the same compound?
**A.** < 7 mg/kg/day

**Q.** What about the NOAEL (rat [4]) of the same compound?
**A.** < 7 mg/kg/day

**Q.** What about the LEL (rat [5]; [18]) of the same compound?
**A.** 4.1 mg/kg/day

**Q.** What about the LOAEL (rat [5]; [18]) of the same compound?
**A.** > 4.1 mg/kg/day

**Q.** And the NEL (rat [5]; [18])?
**A.** 2 mg/kg/day

**Q.** And the NOAEL (rat [5]; [18])?
**A.** ≥ 4.1 mg/kg/day

**Q.** And the LEL (rat [5]; [19])?
**A.** 2 mg/kg/day

**Q.** And the LOAEL (rat [5]; [19])?
**A.** > 4.1 mg/kg/day

**Q.** And the NEL (rat [5]; [19])?
**A.** < 2 mg/kg/day

**Q.** And the NOAEL (rat [5]; [19])?
**A.** ≥ 4.1 mg/kg/day

**Q.** And the LEL (rat [6]; [20])?
**A.** 14.8 mg/kg/day

**Q.** What about the LOAEL (rat [6]; [20]) of the same compound?
**A.** 14.8 mg/kg/day

**Q.** What about the NEL (rat [6]; [20]) of the same compound?
**A.** 3 mg/kg/day

**Q.** And the NOAEL (rat [6]; [20])?
**A.** 3 mg/kg/day

**Q.** And the LOAEL (rat [6]; [21])?
**A.** 14.8 mg/kg/day

**Q.** And the NOAEL (rat [6]; [21])?
**A.** 3 mg/kg/day

**Q.** What about the LEL (rat [6]; group: parental, systemic / pathology microscopic / adrenal gland / [other] + systemic / pathology microscopic / liver / hypertrophy) of the same compound?
**A.** 11.5 mg/kg/day

**Q.** And the NEL (rat [6]; group: parental, systemic / pathology microscopic / adrenal gland / [other] + systemic / pathology microscopic / liver / hypertrophy + systemic / clinical …)?
**A.** 2.34 mg/kg/day

**Q.** And the LEL (rat [6]; [22])?
**A.** 74.7 mg/kg/day

**Q.** What about the LOAEL (rat [6]; [22]) of the same compound?
**A.** > 74.7 mg/kg/day

**Q.** And the NEL (rat [6]; [22])?
**A.** 14.8 mg/kg/day

**Q.** And the NOAEL (rat [6]; [22])?
**A.** ≥ 74.7 mg/kg/day

**Q.** What does the source list for CC(C)(C)c1cc(/C=C2\SC(N)=NC2=O)cc(C(C)(C)C)c1O.CS(=O)(=O)O [Darbufelone mesylate]?
**A.** LOAEL (mouse [7]; [23]): > 300 mg/kg/day; NOAEL (mouse [7]; [23]): ≥ 300 mg/kg/day; NEL (mouse [7]; systemic / clinical chemistry / protein / protein): < 35 mg/kg/day; LEL (rat [8]; [24]): 75 mg/kg/day; LOAEL (rat [8]; [24]): > 75 mg/kg/day; NEL (rat [8]; [24]): 50 mg/kg/day; NOAEL (rat [8]; [24]): ≥ 75 mg/kg/day; LOAEL (rat [8]; [25]): > 75 mg/kg/day; NEL (rat [8]; [25]): 10 mg/kg/day; NOAEL (rat [8]; [25]): ≥ 75 mg/kg/day; LEL (rat [9]; [26]): 1 mg/kg/day; NEL (rat [9]; [26]): < 1 mg/kg/day; LOAEL (rat [9]; [27]): > 2 mg/kg/day; NOAEL (rat [9]; [27]): ≥ 2 mg/kg/day; LEL (rat [9]; [28]): 1 mg/kg/day; NEL (rat [9]; [28]): < 1 mg/kg/day; LOAEL (rat [9]; [29]): > 2 mg/kg/day; NOAEL (rat [9]; [29]): ≥ 2 mg/kg/day; LEL (dog [10]): 2 mg/kg/day; NEL (dog [10]): < 2 mg/kg/day; LOAEL (primate; [30]): > 1000 mg/kg/day; NOAEL (primate; [30]): ≥ 1000 mg/kg/day; LEL (primate; [31]): 100 mg/kg/day; NEL (primate; [31]): < 100 mg/kg/day; LOAEL (dog [11]; [32]): > 200 mg/kg/day; NOAEL (dog [11]; [32]): ≥ 200 mg/kg/day; LEL (dog [11]; [33]): 10 mg/kg/day; NEL (dog [11]; [33]): < 10 mg/kg/day; LOAEL (mouse [12]; [34]): > 800 mg/kg/day; NOAEL (mouse [12]; [34]): ≥ 800 mg/kg/day; NEL (mouse [12]; systemic / organ weight / liver / absolute): < 35 mg/kg/day; LEL (rat [13]): 1 mg/kg/day; LOAEL (rat [13]): > 75 mg/kg/day; NEL (rat [13]): < 1 mg/kg/day; NOAEL (rat [13]): ≥ 75 mg/kg/day; LOAEL (rat [14]; [35]): > 75 mg/kg/day; NOAEL (rat [14]; [35]): ≥ 75 mg/kg/day; LEL (rat [14]; [36]): 5 mg/kg/day; NEL (rat [14]; [36]): < 5 mg/kg/day
